The values below come from patent US11684639B2, “Pharmaceutical composition for preventing and treating cell proliferative disease comprising mixture of feather of birds and scale of fish as an active ingredient” (priority 2007, dated 2023).

This assay relates to human colon cancer cells (HCT-15). Put plainly: Anticancer effect in nude mice transplanted with human colon cancer cells (tumor volume). As to conditions: G2, 2 mg/kg abdominal, once in 2 days. The format is in vivo, BALB/C nude mice. On the procedure:
The anticancer effect of the inventive composition was tested at the Chemon Preclinical Research Center (approved by the KGLP) using a nude mouse transplanted with human colon cancer cells.
7-weeks-old specific pathogen free (SPF) athymic BALB/C nude mice (SLC Japan, Japan) were weighed and grouped to 6 groups, 10 per each group, as follows: negative control group (1), positive control group (1) and test groups (4). The mice were identified by the identification label of the cage and using ear punching.
The test groups were designed as in Table 1.
Colon cancer cells (HCT15) were thawed in a constant-temperature water bath of […] as soon as possible. After mixing well with 10 mL of RPMI1640 culture medium (Sigma Aldrich, USA), centrifuge was performed at 1000 rpm for 10 minutes. The resulting cell pellet was mixed well with 5 mL of RPMI1640 culture medium containing 10% fetal bovine serum (FBS), and the cells were cultured in a cell culture flask under the condition of 37° C. and 5% CO2. The cultured cancer cells were suspended in physiological saline to a concentration of 1×10^7 cells/mL and transplanted subcutaneously to the mice, 0.3 mL (3×10^6 cells) each.
The composition prepared in Example 1 was suspended at various concentrations in sterilized, distilled water for injection (Choongwae Pharma Corporation, Korea) as excipient, ground using a grinding machine (homogenizer), and orally administered to the mice at a dose of 75 mg/kg body weight (G3), 150 mg/kg body weight (G4) or 300 mg/kg body weight (G5), respectively, for 3 weeks, twice a day. Of the test groups, the pre-administration group (G6) had been orally administered with the composition at a dose of 300 mg/kg body weight for 3 weeks, twice a day, before the transplantation of the cancer cells. Following the transplantation of the cancer cells, they were administered in the same way for 3 weeks.
In the negative control group (G1), the excipient was orally administered for 3 weeks, twice a day, instead of the inventive anticancer composition. […] The doxorubicin solution was prepared by dissolving in the excipient by a method known in the art.
During the test, the mice were kept under the condition of 23±3° C. and relative humidity of 55±15%, and access to water and feed was allowed freely.
Tumor volume was measured on days 12, 15, 19 and 22 after the inoculation of the cancer cells. Length, width and height of the tumor were measured using a vernier caliper, and the tumor volume was calculated by the following equation: Tumor volume=(Length×Width×Height)÷2 The tumor volume measurement result is given in Table 2 (unit: mm^3).

In turn, `COc1cccc2c1C(=O)c1c(O)c3c(c(O)c1C2=O)C[C@@](O)(C(=O)CO)C[C@@H]3O[C@H]1C[C@H](N)[C@H](O)[C@H](C)O1` [doxorubicin] yielded a Tumor volume (Day 12) of 29.3 ± 16.0 mm^3, a Tumor volume (Day 15) of 93.7 ± 65.9 mm^3, a Tumor volume (Day 19) of 149.0 ± 77.6 mm^3 and a Tumor volume (Day 22) of 258.6 ± 160.1 mm^3. Also, under “day 22”, the “tumor inhibition effect ([1-(tumor volume of administered group/tumor volume of negative control group)]x100)” value was determined as 59.5%.
